The experiment relates to LacMeta. The conditions noted are these: pH 4.0, 20 mM sodium citrate, 37 °C; copper-loaded enzyme 0.066 µM; ABTS 0.1-10 mM.

A word on the Km: it is the concentration of substrate that gives half-maximal velocity.

For `CCn1c(=NN=c2sc3cc(S(=O)(=O)O)ccc3n2CC)sc2cc(S(=O)(=O)O)ccc21` [ABTS, 2,2′-azino-bis (3-ethylbenzothiazoline-6-sulfonic acid)], the Km was 4.22 ± 0.374 mM.

The record behind these values is PMC8943092, “Broad thermal spectrum metagenomic laccase with action for dye decolorization and fentin hydroxide treatment” (AMB Express, 2022).
